# Laboratory results from article PMC5858925, “Mechanochemical coupling and bi-phasic force-velocity dependence in the ultra-fast ring ATPase SpoIIIE” (eLife, 2018).
# Biological target: T1, SpoIIIE (Bacillus subtilis, UniProt P21458)
# T1 construct: recombinant SpoIIIE, homo-hexamer, immobilized on polystyrene beads
# Test: optical tweezers, pause-free DNA translocation velocity vs [ATP], Michaelis-Menten fit
# Type: biochemical
# Conditions: 0.25-5 mM ATP; 5 pN opposing force; dsDNA track; 5 µM ADP and 5 µM Pi
# T1 sequence (P21458 whole entry): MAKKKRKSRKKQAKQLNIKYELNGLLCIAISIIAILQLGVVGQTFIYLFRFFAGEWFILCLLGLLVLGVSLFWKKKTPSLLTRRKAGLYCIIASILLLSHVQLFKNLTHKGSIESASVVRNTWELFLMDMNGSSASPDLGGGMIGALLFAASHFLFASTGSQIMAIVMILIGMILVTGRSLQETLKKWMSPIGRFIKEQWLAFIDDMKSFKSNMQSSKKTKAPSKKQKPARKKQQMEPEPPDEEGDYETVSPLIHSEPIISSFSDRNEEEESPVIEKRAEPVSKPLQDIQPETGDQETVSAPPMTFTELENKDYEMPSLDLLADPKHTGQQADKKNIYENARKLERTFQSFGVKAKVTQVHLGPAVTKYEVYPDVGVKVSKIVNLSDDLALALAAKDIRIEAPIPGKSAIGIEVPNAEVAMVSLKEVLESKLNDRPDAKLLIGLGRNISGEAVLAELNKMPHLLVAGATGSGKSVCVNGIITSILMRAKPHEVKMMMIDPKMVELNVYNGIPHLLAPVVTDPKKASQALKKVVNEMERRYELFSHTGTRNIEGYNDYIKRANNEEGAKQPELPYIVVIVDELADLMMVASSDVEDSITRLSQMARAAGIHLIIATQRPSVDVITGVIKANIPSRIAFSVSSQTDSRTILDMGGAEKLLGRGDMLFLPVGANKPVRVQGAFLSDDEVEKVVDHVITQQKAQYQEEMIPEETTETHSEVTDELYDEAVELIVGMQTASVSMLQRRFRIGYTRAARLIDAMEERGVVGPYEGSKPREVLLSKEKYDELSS
compound,measurement,value
Nc1ncnc2c1ncn2[C@@H]1O[C@H](COP(=O)(O)OP(=O)(O)OP(=O)(O)O)[C@@H](O)[C@H]1O [ATP],KM,"Although both Vmax and KM decrease with force, Vmax/KM is largely force-independent"
